US20040010001A1, “Methods and compositions for modulating cell proliferation and cell death” (priority 1999, published 2004)
Like-named read-outs stand apart in the source and are kept apart here.

Tests used:
Assay type in all cases: cell-based
[1] = tested on: rat primary tumors, histocultures; test: Drug effect in histocultures of rat primary tumors (inhibition of 3H-thymidine incorporation)
[2] = tested on: rat primary tumor cells, monolayers; test: Drug effect in monolayers of rat primary tumor cells (inhibition of bromodeoxyuridine incorporation); settings: 96 h, read-out: Concentration producing 50% inhibition
[3] = tested on: rat lymph node metastasis cells, monolayers; test: Drug effect in monolayers of rat lymph node metastasis cells (inhibition of bromodeoxyuridine incorporation); settings: 96 h, read-out: Concentration producing 50% inhibition
[4] = tested on: rat lung metastasis cells, monolayers; test: Drug effect in monolayers of rat lung metastasis cells (inhibition of bromodeoxyuridine incorporation); settings: 96 h, read-out: Concentration producing 50% inhibition
[5] = tested on: Human breast MCF7; test: FGF-induced resistance, inhibition of BrdU incorporation; settings: read-out: Drug concentration needed to produce 50% inhibition
Outline: (§1)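 Monolayers were pretreated for 96 h with human recombinant aFGF and/or bFGF in medium with 1% FBS (protein adjusted to 2 mg/ml, renewed every other day) and then drug-treated for 96 h. Antiproliferative effect was read as inhibition of BrdU incorporation.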

[6] = tested on: Human colon HT-29; test: as above; settings: read-out: Drug concentration needed to produce 50% inhibition
Outline: as §1

[7] = tested on: Human lung A459; test: as above; settings: read-out: Drug concentration needed to produce 50% inhibition
Outline: as §1

[8] = tested on: Human pharynx FaDu; test: as above; settings: read-out: Drug concentration needed to produce 50% inhibition
Outline: as §1

[9] = tested on: Rat prostate MAT-LyLu; test: as above; settings: read-out: Drug concentration needed to produce 50% inhibition
Outline: as §1

[10] = tested on: Human prostate PC3 tumor cells; test: Drug treatment and extracellular bFGF (ELISA), LDH release, cell number; settings: for Extracellular bFGF, % of control / Extracellular concentration bFGF / Extracellular LDH, % of control: 72 hours

## CC(=O)O[C@H]1C(=O)[C@@]2(C)[C@H]([C@H](OC(=O)c3ccccc3)[C@]3(O)C[C@H](OC(=O)[C@H](O)[C@@H](NC(=O)c4ccccc4)c4ccccc4)C(C)=C1C3(C)C)[C@]1(OC(C)=O)CO[C@@H]1C[C@@H]2O [Paclitaxel]
[1]
  inhibition at 10 µM: < 50%
[1]; 24 h, read-out: Concentration producing 50% inhibition (data shown are the concentrations that produced 30% inhibition)
  IC30 (concentration producing 30% inhibition): > 14 nM
[2]; Monolayers (passage 0)
  IC50: 10.7 ± 0.5 nM
[2]; Monolayers (passage 1)
  IC50: 10.5 ± 0.5 nM
[2]; Monolayers (passage 2)
  IC50: 10.3 ± 0.8 nM
[2]; Monolayers (passage 3)
  IC50: 10 ± 0.2 nM
[3]; Monolayers (passage 0)
  IC50: 32.9 ± 3.6 nM
[3]; Monolayers (passage 1)
  IC50: 21.8 ± 0.9 nM
[3]; Monolayers (passage 2)
  IC50: 15 ± 0.9 nM
[3]; Monolayers (passage 3)
  IC50: 11.7 ± 0.3 nM
[4]; Monolayers (passage 0)
  IC50: 92.4 ± 6.9 nM
[4]; Monolayers (passage 1)
  IC50: 28.1 ± 0.7 nM
[4]; Monolayers (passage 2)
  IC50: 21.5 ± 3.7 nM
[4]; Monolayers (passage 3)
  IC50: 11.4 ± 0.7 nM
[5]; MCF7, r-bFGF 0 ng/ml
  IC50: 0.32 nM
[5]; MCF7, r-bFGF 0.01 ng/ml
  IC50: 0.45 nM
[5]; MCF7, r-bFGF 0.1 ng/ml
  IC50: 0.84 nM
[5]; MCF7, r-bFGF 1 ng/ml
  IC50: 1.3 nM
[6]; HT-29, 96 h, r-aFGF + r-bFGF 0 ng/ml
  IC50: 2.2 nM
[6]; HT-29, 96 h, r-aFGF + r-bFGF 0.04 ± 1 ng/ml
  IC50: 2 nM
[6]; HT-29, 96 h, r-aFGF + r-bFGF 0.08 ± 1 ng/ml
  IC50: 2 nM
[6]; HT-29, 96 h, r-aFGF + r-bFGF 0.16 ± 1 ng/ml
  IC50: 2.1 nM
[6]; HT-29, 96 h, r-aFGF + r-bFGF 0.64 ± 1 ng/ml
  IC50: 6.2 nM
[6]; HT-29, r-aFGF 0 ng/ml
  IC50: 2.1 nM
[6]; HT-29, r-aFGF 1 ng/ml
  IC50: 2 nM
[6]; HT-29, r-aFGF 10 ng/ml
  IC50: 1.9 nM
[6]; HT-29, r-aFGF 50 ng/ml
  IC50: 2 nM
[6]; HT-29, r-aFGF + r-bFGF 1 ± 1 ng/ml
  IC50: 10.8 nM
[6]; HT-29, r-bFGF 0 ng/ml
  IC50: 2.1 nM
[6]; HT-29, r-bFGF 1 ng/ml
  IC50: 2 nM
[6]; HT-29, r-bFGF 10 ng/ml
  IC50: 1.9 nM
[6]; HT-29, r-bFGF 50 ng/ml
  IC50: 2 nM
[7]; A459, r-bFGF 0 ng/ml
  IC50: 0.87 nM
[7]; A459, r-bFGF 1 ng/ml
  IC50: 0.9 nM
[7]; A459, r-bFGF 10 ng/ml
  IC50: 1.07 nM
[7]; A459, r-bFGF 50 ng/ml
  IC50: 1.22 nM
[8]; 96 h, r-aFGF + r-bFGF 0 ng/ml
  IC50: 0.82 nM
[8]; 96 h, r-aFGF + r-bFGF 0.04 ± 1 ng/ml
  IC50: 0.84 nM
[8]; 96 h, r-aFGF + r-bFGF 0.08 ± 1 ng/ml
  IC50: 0.82 nM
[8]; 96 h, r-aFGF + r-bFGF 0.16 ± 1 ng/ml
  IC50: 0.81 nM
[8]; 96 h, r-aFGF + r-bFGF 0.32 ± 1 ng/ml
  IC50: 0.84 nM
[8]; 96 h, r-aFGF + r-bFGF 0.64 ± 1 ng/ml
  IC50: 2.01 nM
[8]; 96 h, r-aFGF + r-bFGF 1 ± 1 ng/ml
  IC50: 3.5 nM
[8]; r-aFGF 0 ng/ml
  IC50: 0.82 nM
[8]; r-aFGF 1 ng/ml
  IC50: 0.8 nM
[8]; r-aFGF 10 ng/ml
  IC50: 0.82 nM
[8]; r-aFGF 50 ng/ml
  IC50: 0.83 nM
[8]; r-bFGF 0 ng/ml
  IC50: 0.77 nM
[8]; r-bFGF 1 ng/ml
  IC50: 0.79 nM
[8]; r-bFGF 10 ng/ml
  IC50: 0.74 nM
[8]; r-bFGF 50 ng/ml
  IC50: 0.82 nM
[9]; r-bFGF 0 ng/ml
  IC50: 12.7 nM
[9]; r-bFGF 1 ng/ml
  IC50: 16.3 nM
[9]; r-bFGF 10 ng/ml
  IC50: 47.8 nM
[9]; r-bFGF 50 ng/ml
  IC50: 214 nM
[10]; drug concentration 2.5 NM
  Remaining cell number at 72 hours (% of control): 87%
  Remaining cell number at 72 hours × 10^6: 2.0 × 10^6
  Extracellular bFGF, % of control: 347 % of control
  Extracellular concentration bFGF: 19.5 pg/mL
[10]; drug concentration 5 NM
  Remaining cell number at 72 hours (% of control): 43%
  Remaining cell number at 72 hours × 10^6: 1.0 × 10^6
  Extracellular LDH, % of control: 437 % of control
  Extracellular bFGF, % of control: 1358 % of control
  Extracellular concentration bFGF: 76.3 pg/mL
[10]; drug concentration 10 NM
  Remaining cell number at 72 hours (% of control): 22%
  Remaining cell number at 72 hours × 10^6: 0.5 × 10^6
  Extracellular LDH, % of control: 705 % of control
  Extracellular bFGF, % of control: 2917 % of control
  Extracellular concentration bFGF: 164 pg/mL
